One may read the IC50 as the concentration that inhibits the measured activity by half.

Data set [1] addresses muscarinic receptors (M1-M5). Put plainly: Muscarinic receptor signaling, statements for M1-M5 together. Particulars: for IC50 at muscarinic receptors (in words): lack of anticholinergic properties; for inhibition of muscarinic receptor signaling (in words): stimulation with 500 nM acetylcholine.
Description: (§1) C6 rat glioma and CHO-K1 (Chinese hamster ovary) cells were obtained from the American Type Culture Collection (ATCC, Manassas, Va.). […] Recombinant cell lines stably expressing independently each of the five human muscarinic receptors (M1, M2, M3, M4 or M5) were established by transfecting C6 rat glioma cells with the plasmid pcDNA3.1(+) containing the DNA sequence encoding the muscarinic receptor subtypes. Moreover, two of the muscarinic receptor subtypes (M2 and M4) that signal through the Gαi protein were expressed in C6 cells that also expressed a functional chimeric Gq/i protein allowing these receptors to signal via calcium mobilization.
For data set [2], the system named is contact lens-wearing subjects. Put plainly: Effect of topical epinastine on contact lens-wearing, contact lens intolerant subjects. It is filed as in vivo. The text has this:
This was a multi-center, open-label, randomized study that compared (a) epinastine 0.05% ophthalmic solution (ELESTAT®, Inspire Pharmaceuticals, Inc., Durham, N.C.) plus rewetting drops (Walgreens Rewetting Drops, Walgreens, Deerfield Ill.) with (b) rewetting drops alone. The subjects wore contact lenses, but were contact lens intolerant. The study started during the spring allergy season because seasonal allergic conjunctivitis may exacerbate the symptoms of contact lens intolerance.
146 subjects had 3 clinic visits over a 2-week period. The first was the screening visit to determine eligibility. Following that, subjects completed a daily diary card to assess compliance and capture baseline values during a 5-7 day run-in period with rewetting drops. At the next visit, each subject was dispensed a new pair of contact lenses and randomly assigned to receive either (a) epinastine 0.05% ophthalmic solution BID (twice a day) plus rewetting drops (75 subjects), or (b) rewetting drops only as needed, but at least twice a day (71 subjects), for a 5-7 day treatment period. During the treatment period, subjects recorded the length of time that contact lens wear was comfortable, the total time of wear, ocular itch, overall ocular comfort, and use of rewetting drops. Subjects receiving epinastine were instructed to remove contact lenses prior to instillation, allow at least 10 minutes before reinsertion, and allow 15 minutes before administering rewetting drops. Each instillation was to occur 8-12 hours after the previous one, with the evening application coming after removal of lenses for the day. The final visit came after the 5-7 day treatment period and allowed collection of the data and unused study medication.
Ocular comfort was scored on a scale of 0-4, with 0=very comfortable, 1=somewhat comfortable, 2=mildly uncomfortable, 3=moderately uncomfortable, and 4=very uncomfortable.
Ocular itch was scored on a scale of 0-4, with 0=none, 1=mild, 2=moderate, 3=severe, and 4=extremely severe.
Baseline values presented are the average of all entries recorded during the run-in phase of the study. P values are based on an ANCOVA model that included the treatment, the site, and the baseline value. Values for Day 1 are not included in the analysis for contact lens wear time, ocular itching, ocular comfort, and rewetting drop usage because they were a mixture of run-in and treatment period values.

The target in data set [3] is human histamine H1 receptor (Homo sapiens, UniProt P35367). Put plainly: H1 receptor potency: inhibition of histamine stimulation in CHO-K1 H1 cells.
Description: as §1
Dose response curves were generated.
A further data set deals with C57BL6 mice. Put plainly: Effect of topical epinastine and olopatadine on tear volume in mice (phenol red cotton thread). It is filed as in vivo, mouse. The note with it: for tear volume compared with untreated group: olopatadine: 15 min and 45 min (P<0.05); for overall effect on tear volume / tear secretion (conclusion): topical, mice. Here is the method: After two and four days of treatment, tear volume measurements were made with a phenol red impregnated cotton thread (Zone-Quick, Menicon, San Mateo, Calif.) 15, 45, 90, 120 and 240 min after the last instillation of the drug. A baseline tear measurement was performed before initiation of drug therapy. The untreated group had tear volume measurements done at the same time points. The length of tear wetting on the cotton thread was measured with a Nikon SMZ1500 microscope using MetaVue© software. A standard curve of cotton thread uptake was made using a glass micropipette with a known volume of a basic solution. Mouse tear volumes were calculated using regression analysis calculated by Microsoft® Excel. ANOVA with Tukey's Multiple Comparison Test was used for statistical analysis using GraphPad Prism® software.

The test system of the next data set is allergic conjunctivitis. The note with it: in vivo; cited from earlier work.
The test system of a further data set is healthy individuals. The note with it: systemic antihistamines; increased corneal and conjunctival staining, decreased TFBUT, increased ocular discomfort; cited from earlier work.
For a further data set, the system named is human subjects. Put plainly: Ocular drying effect of topical epinastine and systemic loratadine, crossover study (fluorophotometry, staining, TFBUT). The note with it: after 4 days of treatment.
For data set [4], the target named is human muscarinic receptor M3 (Homo sapiens, UniProt P20309). Put plainly: Muscarinic receptor potency, C6 cells expressing recombinant M3.
Description: as §1
The target in data set [5] is T1, human muscarinic receptor M2 (Homo sapiens, UniProt P08172).
T1 sequence (P08172 1-466): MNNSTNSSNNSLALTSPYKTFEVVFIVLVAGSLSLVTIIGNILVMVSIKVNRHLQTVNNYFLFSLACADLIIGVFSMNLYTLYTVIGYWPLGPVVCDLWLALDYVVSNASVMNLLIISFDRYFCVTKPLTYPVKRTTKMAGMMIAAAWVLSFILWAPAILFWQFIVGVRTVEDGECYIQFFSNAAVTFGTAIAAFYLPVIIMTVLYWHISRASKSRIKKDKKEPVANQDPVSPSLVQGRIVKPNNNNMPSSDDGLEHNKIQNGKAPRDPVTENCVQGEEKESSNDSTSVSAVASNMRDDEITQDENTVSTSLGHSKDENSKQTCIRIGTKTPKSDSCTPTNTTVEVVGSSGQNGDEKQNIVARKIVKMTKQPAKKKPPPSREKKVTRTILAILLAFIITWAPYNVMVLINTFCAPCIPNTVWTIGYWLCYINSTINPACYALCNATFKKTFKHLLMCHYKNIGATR
Put plainly: Muscarinic receptor potency, C6 cells expressing recombinant M2 (chimeric Gq/i).
Description: as §1

The target of data set [6] is endogenous M3 receptor (1321N1) (Homo sapiens, UniProt P20309).
Data set [7] addresses T2, human muscarinic receptor M4 (Homo sapiens, UniProt P08173).
T2 sequence (P08173 1-479): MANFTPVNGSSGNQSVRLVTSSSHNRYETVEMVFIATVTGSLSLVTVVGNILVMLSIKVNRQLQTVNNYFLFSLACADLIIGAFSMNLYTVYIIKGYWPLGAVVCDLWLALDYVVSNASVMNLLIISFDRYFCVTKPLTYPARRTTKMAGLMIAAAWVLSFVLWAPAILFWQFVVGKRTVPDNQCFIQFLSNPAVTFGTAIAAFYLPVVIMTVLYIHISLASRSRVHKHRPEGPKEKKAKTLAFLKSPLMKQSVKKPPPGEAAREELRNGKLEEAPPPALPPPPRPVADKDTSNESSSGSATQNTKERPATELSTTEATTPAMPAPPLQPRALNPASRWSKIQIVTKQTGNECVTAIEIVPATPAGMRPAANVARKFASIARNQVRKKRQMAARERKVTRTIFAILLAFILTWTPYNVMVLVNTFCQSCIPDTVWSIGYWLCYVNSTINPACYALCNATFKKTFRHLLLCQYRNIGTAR
Put plainly: Muscarinic receptor potency, C6 cells expressing recombinant M4 (chimeric Gq/i).
Description: as §1

Data set [8] concerns the target T3, human muscarinic receptor M1 (Homo sapiens, UniProt P11229).
T3 sequence (P11229 1-460): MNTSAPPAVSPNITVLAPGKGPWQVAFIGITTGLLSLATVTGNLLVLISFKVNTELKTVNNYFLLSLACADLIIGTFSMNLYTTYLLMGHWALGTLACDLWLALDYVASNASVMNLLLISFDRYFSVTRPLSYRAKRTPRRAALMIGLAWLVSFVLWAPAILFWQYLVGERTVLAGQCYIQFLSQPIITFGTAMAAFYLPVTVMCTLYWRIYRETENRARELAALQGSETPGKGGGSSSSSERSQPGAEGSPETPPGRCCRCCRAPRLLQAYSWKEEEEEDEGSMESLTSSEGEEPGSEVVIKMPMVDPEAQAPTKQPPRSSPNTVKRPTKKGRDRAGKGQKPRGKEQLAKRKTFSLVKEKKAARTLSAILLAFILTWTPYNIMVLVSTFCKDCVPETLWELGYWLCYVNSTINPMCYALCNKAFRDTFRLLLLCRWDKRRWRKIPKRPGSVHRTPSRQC
Put plainly: cell-based.
Description: as §1

The target in data set [9] is T4, human muscarinic receptor M5 (Homo sapiens, UniProt P08912).
T4 sequence (P08912 1-532): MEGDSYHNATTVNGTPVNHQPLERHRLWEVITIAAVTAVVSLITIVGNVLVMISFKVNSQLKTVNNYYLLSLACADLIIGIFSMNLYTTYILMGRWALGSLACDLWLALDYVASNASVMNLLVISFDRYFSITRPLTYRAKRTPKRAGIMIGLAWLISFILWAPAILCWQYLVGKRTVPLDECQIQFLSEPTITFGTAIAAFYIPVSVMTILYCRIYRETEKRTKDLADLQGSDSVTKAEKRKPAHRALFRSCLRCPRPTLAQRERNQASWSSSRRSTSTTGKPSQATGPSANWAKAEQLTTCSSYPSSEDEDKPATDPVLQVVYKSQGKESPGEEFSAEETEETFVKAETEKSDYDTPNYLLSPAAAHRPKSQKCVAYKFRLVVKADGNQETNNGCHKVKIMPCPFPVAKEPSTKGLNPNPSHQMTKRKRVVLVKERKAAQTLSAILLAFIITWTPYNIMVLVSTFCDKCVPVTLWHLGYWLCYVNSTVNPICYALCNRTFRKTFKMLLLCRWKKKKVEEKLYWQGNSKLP
Put plainly: Muscarinic receptor potency, C6 cells expressing recombinant M5.
Description: as §1

Where [10] appears, read: average during treatment period.

endogenous M3 receptor (1321N1), sequence (P20309 whole entry): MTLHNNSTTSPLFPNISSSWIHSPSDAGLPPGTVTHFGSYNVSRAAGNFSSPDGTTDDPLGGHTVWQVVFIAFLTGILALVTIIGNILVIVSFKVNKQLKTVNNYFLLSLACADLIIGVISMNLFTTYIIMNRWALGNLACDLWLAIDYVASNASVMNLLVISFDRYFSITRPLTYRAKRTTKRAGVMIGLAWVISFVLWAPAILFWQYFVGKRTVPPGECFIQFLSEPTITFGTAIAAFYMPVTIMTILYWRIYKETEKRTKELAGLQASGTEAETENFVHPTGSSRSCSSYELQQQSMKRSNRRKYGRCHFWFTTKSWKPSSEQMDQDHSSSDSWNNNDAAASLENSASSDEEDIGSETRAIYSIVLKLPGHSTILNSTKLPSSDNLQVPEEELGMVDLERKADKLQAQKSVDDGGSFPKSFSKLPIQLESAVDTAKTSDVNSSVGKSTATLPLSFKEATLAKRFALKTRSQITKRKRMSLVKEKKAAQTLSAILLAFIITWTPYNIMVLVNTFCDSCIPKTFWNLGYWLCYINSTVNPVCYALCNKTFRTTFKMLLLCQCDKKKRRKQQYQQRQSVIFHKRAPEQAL
human muscarinic receptor M3, sequence (P20309 whole entry): as above
human histamine H1 receptor, sequence (P35367 whole entry): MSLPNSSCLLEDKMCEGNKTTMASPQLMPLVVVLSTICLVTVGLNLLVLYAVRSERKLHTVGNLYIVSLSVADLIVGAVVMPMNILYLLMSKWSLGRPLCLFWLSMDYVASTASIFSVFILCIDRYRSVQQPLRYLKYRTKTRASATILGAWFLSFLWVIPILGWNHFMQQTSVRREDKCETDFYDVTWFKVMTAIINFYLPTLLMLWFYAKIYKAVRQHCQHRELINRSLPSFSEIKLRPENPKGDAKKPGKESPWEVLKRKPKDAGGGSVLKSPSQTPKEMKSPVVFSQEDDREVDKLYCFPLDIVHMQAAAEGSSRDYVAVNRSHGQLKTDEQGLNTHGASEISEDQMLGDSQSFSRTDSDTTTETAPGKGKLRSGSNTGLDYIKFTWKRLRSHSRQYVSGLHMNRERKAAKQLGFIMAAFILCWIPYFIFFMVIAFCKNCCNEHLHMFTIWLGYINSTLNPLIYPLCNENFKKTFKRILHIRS

Consider `NC1=NCC2c3ccccc3Cc3ccccc3N12` (stereo not shown) [epinastine, 3-amino-9,13b-dihydro-1H-dibenz[c,f]-imidazo[5,1-a]azepine], for which, in data set [1], the “IC50 at muscarinic receptors (in words)” value is recorded as “could not be calculated”. In addition, in [2] (setting [10]), the “Frequency of rewetting drop use, mean change from baseline” value is reported as −0.55 and the “Total contact lens wear, mean change from baseline” value was 0.35 h. In data set [2] (average during treatment period (5-7 days)), the “Comfortable contact lens wear, mean change from baseline” value was 1.33 h. The “average use of rewetting drops over the entire treatment period” value in data set [2] (in vivo) is 2.79 uses per day. The “mean overall eye comfort over the entire treatment period” value in data set [2] (score 0-4 (0=very comfortable, 4=very uncomfortable)) came to 1.43. Moreover, the “Overall eye comfort, mean change from baseline” value in data set [2] (score 0-4 (0=very comfortable, 4=very uncomfortable), average during treatment period) is −0.48. For the same compound, the “average ocular itch score over the entire treatment period” value in data set [2] (score on a scale of 0-4) is given as 1.11. The “Ocular itch, mean change from baseline” value in [2] (score on a scale of 0-4, average during treatment period) is −0.54. In data set [2] (treatment period 5-7 days), the “average total wearing time over the treatment period” value is 13.22 h and the “comfortable wear time averaged over the treatment period” value was 9.21 h. Also, in data set [3], half-maximal inhibition (IC50) required 0.019 ± 0.003 µM. Also, the “mean tear volume compared with olopatadine-treated group” value in the data set with C57BL6 mice (after 2 days of treatment, 1 μL twice a day on ocular surface, 15, 45, 90 and 240 minutes, significant at 45 min (P<0.001)) is “higher mean tear volumes”. Also, in the data set on C57BL6 mice (after 2 days of treatment), the “tear volume compared with untreated group” value was “increased production of tears over the untreated group, but the difference was not statistically significant”. The “tear volume compared with olopatadine” value with C57BL6 mice (after 4 days of treatment, significant at 45 min (p<0.05)) was “volumes were higher at all time points”. Further, the “overall effect on tear volume / tear secretion (conclusion)” value in the data set on C57BL6 mice is “not found to inhibit tear secretion, but rather increased tear production”. Further, the “redness and itching associated with allergic conjunctivitis” value in the data set on allergic conjunctivitis is “reduces redness and itching”.

In the case of `CCOC(=O)N1CCC(=C2c3ccc(Cl)cc3CCc3cccnc32)CC1` [loratadine], the “signs and symptoms associated with ocular dryness” value in the data set with healthy individuals is “induced signs and symptoms associated with ocular dryness”. In the data set with human subjects, the “corneal and conjunctival staining, increase” value was found to be 22%; the “mean TFBUT (tear film break-up time), decrease” value is listed as 22%; the “tear flow, decrease” value is 35%; the “tear volume, decrease” value is given as 34%.

For `CCOCCn1c(C2CCN(CCc3ccc(C(C)(C)C(=O)O)cc3)CC2)nc2ccccc21` [bilastine], the “IC50 at muscarinic receptors (in words)” value in [1] is given as “could not be calculated”. The same compound displayed a half-inhibitory concentration (IC50) in [3] of 0.165 ± 0.044 µM.

Turning to `CN(C)CC/C=C1/c2ccccc2COc2ccc(CC(=O)O)cc21` [olopatadine], in data set [1], the “inhibition of muscarinic receptor signaling (in words)” value is “inhibited muscarinic receptor signaling in a dose-dependent manner”. The concentration for half-maximal inhibition (IC50) in [4] came to 7.98 µM; in data set [5], 7.67 µM; in data set [6], 41.9 µM; in [7], 13.1 µM; in data set [8], 1.74 µM; in data set [9], 10.7 µM. Also, the “tear volume compared with untreated group” value in the data set with C57BL6 mice (after 2 days of treatment) is “untreated group also had a statistically higher tear volume than the olopatadine group”. Besides, the “overall effect on tear volume / tear secretion (conclusion)” value in the data set on C57BL6 mice is recorded as “significant decrease in tear volume”.

In the case of `O=C(O)COCCN1CCN(C(c2ccccc2)c2ccc(Cl)cc2)CC1` (stereo not shown) [cetirizine], the “IC50 at muscarinic receptors (in words)” value in [1] is “could not be calculated”. The “signs and symptoms associated with ocular dryness” value in the data set with healthy individuals is “induced signs and symptoms associated with ocular dryness”.

Regarding `CN1CCC(=C2c3ccccc3CC(=O)c3sccc32)CC1` [ketotifen], the IC50 in [5] stood at 0.209 µM; in [7] it was 0.561 µM; in data set [9], 0.138 µM.

As to `CN1CCCC(n2nc(Cc3ccc(Cl)cc3)c3ccccc3c2=O)CC1` (stereo not shown) [azelastine], the “inhibition of muscarinic receptor signaling (in words)” value in data set [1] was “inhibited muscarinic receptor signaling in a dose-dependent manner”. Moreover, the IC50 was 16.8 µM in [4], 10.2 µM in data set [6], 8.11 µM in data set [7] and 3.26 µM in [9].

The record behind these values is patent US20130344139A1, “METHOD OF REDUCING CONTACT LENS INTOLERANCE WITH NON-DRYING ANTIHISTAMINES” (priority 2005, published 2013).
